What is called EC50 is the concentration that produces a half-maximal response. Read a high EC50 as lower potency in that assay.

The assay relates to THP-1 Lucia ISG cells. The assay can be described thus: ISG-LUC activation assay (ISRE-luciferase assay). The class given is cell-based. The following applies: Homo sapiens, THP1-Lucia ISG, activity score based upon potency and efficacy data, 24 hours. The text has this:
We have established a robust platform for identifying non-nucleotide small molecule STING agonists. This has been established using a primary assay involving a human THP-1 cell line carrying an IRF-inducible reporter with 5 copies of the IFN signaling response element. Counter screens, involving alternative reporter constructs, rodent cell-based assays, as well as cGAS and STING knock-out cell lines, are used to eliminate luciferase artifacts and ensure human-rodent cross species reactivity, as well as pathway selectivity. Biochemical assays, involving cGAS enzymatic activity and STING protein binding assays, are used to identify the specific target of identified hits.
Tissue culture. Wild-type (cat. no. thpl-isg) and STING KO (cat. no. thpd-kostg) THP-1-Lucia ISG cells were purchased from Invivogen and maintained in growth media consisting of RPMI 1640, 2 mM L-glutamine, 25 mM HEPES, 10% heat-inactivated fetal bovine serum (FBS), 1,000 units/ml penicillin, 1,000 μg/ml streptomycin, 0.25 μg/ml Amphotericin B, and 100 μg/ml zeocin unless otherwise stated.
ISRE-luciferase assay. THP-1 Lucia ISG cells were resuspended in low-serum growth media (2% FBS) at a density of 5×10^5 cells/ml and treated with test article or vehicle (DMSO). 50 μL of cells were seeded into each well of a 384-well white greiner plates and incubated for 24 hours. To evaluate expression of the luciferase reporter, 30 μl of Quanti-luc (Invivogen) detection reagent was added to each well and luminescence was read using an Envision plate reader (Perkin Elmer) set with an integration time of 0.1 seconds.
For `C#Cc1cc2nc(-c3ccc(-n4ccnc4)nn3)oc(=O)c2cc1F` [Compound 75], the EC50 was less than 0.9 µM.

Turning to `COC(=O)c1nc(Cl)c(Cl)cc1NC(=O)c1ccc(-c2cc[nH]n2)nn1` [Compound 34], the EC50 is less than 0.9 µM.

The molecule `COC(=O)NCCNc1cc(C(=O)Nc2cc(F)c(F)cc2C(=O)OCc2ccc(OC)cc2)nnc1-n1ccnc1` [Compound 61] came in with an EC50 of more than 1 µM.

For `COC(=O)c1cc(F)c(F)cc1NC(=O)c1ccc(-c2cn[nH]c2)nn1` [Compound 58], the EC50 is less than 0.9 µM.

The molecule `N#Cc1cc(C(=O)O)c(NC(=O)c2ccc(-c3cn[nH]c3)nn2)cc1Cl` [Compound 70] registered an EC50 of more than 20 µM.

As for `C/C=C/c1cc(NC(=O)c2ccc(-n3ccnc3)nn2)c(C(=O)O)cc1F` [Compound 89], the EC50 was less than 0.9 µM.

`COC(=O)c1cc(F)c(F)cc1NC(=O)c1cc(CN)c(-n2ccnc2)nn1` [Compound 65] returned an EC50 of more than 1 µM.

`O=C(Nc1cc(Cl)c(Cl)cc1C(=O)O)c1ccc(-c2cn[nH]c2)nn1` [Compound 49] had an EC50 of more than 1 µM.

`C#Cc1cc(NC(=O)c2ncc(-c3cn[nH]c3)cn2)c(C(=O)O)cc1F` [Compound 108] returned an EC50 of more than 20 µM.

The molecule `COC(=O)c1cc(Cl)c(Cl)cc1NC(=O)c1cn(-c2cn[nH]c2)nn1` [Compound 23] had an EC50 of less than 0.9 µM.

Molecule `COC(=O)c1cc(F)c(F)cc1NC(=O)c1cc(N)c(-n2ccnc2)nn1` [Compound 41] yielded an EC50 of less than 0.9 µM.

Turning to `C=Cc1cc(NC(=O)c2ccc(-c3cn[nH]c3)nn2)c(C(=O)O)cc1F` [Compound 44], the EC50 is less than 0.9 µM.

For the molecule `C=Cc1cc(NC(=O)c2ccc(-n3ccnc3)nn2)c(C(=O)O)cc1F` [Compound 88], the EC50 was less than 0.9 µM.

In the case of `O=C(Nc1cc(Cl)c(Cl)cc1C(=O)O)c1ccc(-c2c[nH]nn2)nn1` [Compound 51], the EC50 is more than 1 µM.

With `COC(=O)c1cc(Cl)c(F)cc1NC(=O)c1ccncn1` [Compound 45], the EC50 is more than 1 µM.

`C#Cc1cc(NC(=O)c2ccc(-n3ccnc3)nn2)c(C(=O)O)nc1C` [Compound 90] registered an EC50 of less than 3 µM.

Turning to `C#Cc1cc(NC(=O)c2ccc(-c3cn[nH]c3)nn2)c(-c2c(O)c(=O)c2=O)cc1F` [Compound 83], the EC50 is less than 0.9 µM.

As to `C#Cc1cc(NC(=O)c2ccc(-n3ccnc3)nn2)c(C(=O)OC)nc1C#N` [Compound 107], the EC50 was less than 0.9 µM.

Molecule `C#Cc1cc2nc(-c3ccc(-n4ccnc4)nn3)oc(=O)c2cc1Cl` [Compound 80] gave an EC50 of less than 0.9 µM.

Take `N#Cc1cc(C(=O)O)c(NC(=O)c2ccc(-n3ccnc3)nn2)cc1Cl` [Compound 99]: the EC50 is less than 3 µM.

For the molecule `CCOC(=O)Nc1ccc(C(=O)Nc2cc(F)c(F)cc2C(=O)O)nn1` [Compound 11], the EC50 is more than 1 µM.

Molecule `O=C(Nc1cc(Cl)c(Cl)nc1C(=O)O)c1ccc(-n2ccnc2)nn1` [Compound 82] showed an EC50 of less than 0.9 µM.

As to `C#Cc1cc(NC(=O)c2ccc(-n3ccnc3)nn2)c(C(=O)OC(C)C)cc1F` [Compound 96], the EC50 is more than 1 µM.

In the case of `C#Cc1cc(NC(=O)c2ccc(-n3ccnc3)nn2)c(C(=O)OC(C)C)nc1Cl` [Compound 97], the EC50 was less than 0.9 µM.

`C#Cc1cc(NC(=O)c2ccc(-n3ccnc3)nn2)c(C(=O)OCCN2CCOCC2)nc1Cl` [Compound 98] gave a half-maximal effective concentration (EC50) of less than 0.9 µM.

`COC(=O)c1cc(F)c(F)cc1NC(=O)c1ccc(-c2ccnc(N)c2)nn1` [Compound 40] showed an EC50 of less than 0.9 µM.

In turn, `COC(=O)c1cc(F)c(F)cc1NC(=O)c1ccc(N)nn1` [Compound 8] yielded an EC50 of more than 1 µM.

Molecule `O=C(Nc1cc(Cl)c(Cl)cc1C(=O)O)c1cn(-c2cn[nH]c2)nn1` [Compound 64] registered an EC50 of more than 1 µM.

In the case of `C#Cc1cc(NC(=O)c2ccc(-n3ccnc3)nn2)c(C(=O)O)nc1F` [Compound 92], the EC50 is less than 0.9 µM.

In turn, `C#Cc1cc(NC(=O)c2ccc(-c3cn[nH]c3)nn2)c(C(=O)O)nc1Cl` [Compound 38] returned an EC50 of less than 0.9 µM.

On to `COC(=O)c1cc(F)c(F)cc1NC(=O)c1ccc(-c2ccncc2)nn1` [Compound 60], for which the EC50 was less than 0.9 µM.

Molecule `C#Cc1cc(NC(=O)c2ccc(-n3ccnc3)nn2)c(C(=O)OC(C)OC(=O)OCC)cc1F` (centres unmarked) [Compound 86] came in with an EC50 of less than 0.9 µM.

As for `C#Cc1cc(NC(=O)c2ccc(-c3ccncc3)nn2)c(C(=O)O)cc1Cl` [Compound 78], the EC50 was less than 0.9 µM.

In turn, `C#Cc1cc(NC(=O)c2ccc(-c3cn[nH]c3)nn2)c(C(=O)O)cc1Cl` [Compound 53] came in with an EC50 of more than 1 µM.

The molecule `CC#Cc1cc(NC(=O)c2ccc(-n3ccnc3)nn2)c(C(=O)OCC)nc1Cl` [Compound 95] displayed an EC50 of less than 0.9 µM.

For `C#Cc1cc2nc(-c3ccc(-n4ccnc4)nn3)oc(=O)c2nc1Cl` [Compound 93], the EC50 is less than 3 µM.

`COC(=O)c1cc(Cl)c(Cl)cc1NC(=O)c1cc(CCCN)c(-n2ccnc2)nn1` [Compound 74] showed an EC50 of more than 1 µM.

The molecule `COc1cncc(-c2ccc(C(=O)Nc3cc(F)c(F)cc3C(=O)O)nn2)c1` [Compound 19] returned an EC50 of more than 1 µM.

With `C#Cc1cc(NC(=O)c2cn(-c3cn[nH]c3)nn2)c(C(=O)O)cc1F` [Compound 36], the EC50 was more than 1 µM.

The molecule `CC#Cc1cc(NC(=O)c2ccc(-n3ccnc3)nn2)c(C(=O)O)nc1Cl` [Compound 104] gave a half-maximal effective concentration (EC50) of less than 0.9 µM.

Take `Cn1cc(C#N)c(-c2ccc(C(=O)Nc3cc(Cl)c(Cl)cc3C(=O)O)nn2)n1` [Compound 32]: the EC50 was more than 20 µM.

`O=C(Nc1cc(Cl)c(Cl)nc1C(=O)O)c1ccc(-c2cc[nH]n2)nn1` [Compound 33]: the EC50 is more than 1 µM.

On to `Cc1nc(C(=O)O)c(NC(=O)c2ccc(-n3ccnc3)nn2)cc1Cl` [Compound 91], for which the EC50 is more than 1 µM.

For the molecule `C#Cc1cc(NC(=O)c2ccc(-n3ccnc3)nn2)c(C(=O)OCC)nc1Cl` [Compound 76], the EC50 was less than 0.9 µM.

`C#Cc1cc(NC(=O)c2cn(-c3cn[nH]c3)nn2)c(C(=O)OC)cc1F` [Compound 35] showed an EC50 of less than 0.9 µM.

The molecule `CC#Cc1cc(NC(=O)c2ccc(-n3ccnc3)nn2)c(C(=O)O)cc1F` [Compound 87] yielded an EC50 of less than 0.9 µM.

As for `COC(=O)c1cc(F)c(F)cc1NC(=O)c1ccc(C#N)nn1` [Compound 5], the EC50 is more than 1 µM.

In turn, `COC(=O)NCc1cc(C(=O)Nc2cc(Cl)c(Cl)cc2C(=O)OC)nnc1-n1ccnc1` [Compound 47] yielded an EC50 of more than 1 µM.

In the case of `N#Cc1n[nH]cc1-c1ccc(C(=O)Nc2cc(Cl)c(F)cc2C(=O)O)nn1` [Compound 28], the concentration for a half-maximal effect (EC50) is more than 1 µM.

`C/C=C/c1cc(NC(=O)c2ccc(-n3ccnc3)nn2)c(C(=O)O)nc1Cl` [Compound 101] registered a 50% effective concentration (EC50) of less than 0.9 µM.

`COC(=O)c1cc(F)c(F)cc1NC(=O)c1cc(C)c(-n2ccnc2)nn1` [Compound 42] showed an EC50 of more than 1 µM.

Turning to `COC(=O)c1cc(F)c(F)cc1NC(=O)c1ccc(-c2cccnc2)nn1` [Compound 10], the EC50 is more than 1 µM.

As to `COC(=O)c1cc(F)c(F)cc1NC(=O)c1ccc(CC#N)nn1` [Compound 9], the EC50 is more than 1 µM.

The values are drawn from US20220288065A1, “MONOCYCLIC AGONISTS OF STIMULATOR OF INTERFERON GENES STING” (The Scripps Research Institute, priority 2019, published 2022).
